Experimental findings from patent US20210395210A1, “INHIBITION OF BACTERIAL CHAPERONIN SYSTEMS” (THE TRUSTEES OF INDIANA UNIVERSITY, priority 2018, published 2021) are described below.

One data set addresses T1, native MDH (Sus scrofa, UniProt P00346).
T1 construct: soluble pig heart MDH from Roche, product #10127248001; purchased Roche 10127248001; host or cells: pig heart
T1 sequence (P00346 25-338): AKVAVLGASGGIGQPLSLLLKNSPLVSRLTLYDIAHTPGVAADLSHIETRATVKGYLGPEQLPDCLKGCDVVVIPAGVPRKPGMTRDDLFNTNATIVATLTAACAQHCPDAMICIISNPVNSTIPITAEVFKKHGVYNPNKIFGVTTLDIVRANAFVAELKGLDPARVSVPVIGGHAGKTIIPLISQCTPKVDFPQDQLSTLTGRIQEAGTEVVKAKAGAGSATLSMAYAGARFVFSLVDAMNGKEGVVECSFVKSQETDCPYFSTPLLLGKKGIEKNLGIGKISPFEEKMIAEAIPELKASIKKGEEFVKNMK
The experiment in a line: Counter-screen for inhibition of native MDH enzymatic activity. The data set is classed as biochemical, pig. The procedure, abridged: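 Compounds were added only after GroEL/ES-mediated MDH refolding (45 min, 37 °C) had been EDTA-quenched, so only refolded MDH activity is probed.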

The next data set can be described thus: in vitro. The note with it: human. On the procedure:
HEK 293 cells were maintained in MEM medium (Corning Cellgro, 10-009 CV) supplemented with 10% FBS (Sigma, F2242). […] Cells at 80% confluence were harvested and diluted in growth medium, then 45 μL of the THLE-3 cells (1,500 cells/well) or HEK 293 cells (1,500 cells/well) were dispensed per well, and plates were sealed with “Breathe Easy” oxygen permeable membranes (Diversified Biotech) and incubated at 37° C., 5% CO2, for 24 h.

In data set [1] the test system is Klebsiella Pneumonia (ATCC 13883). Nature of the data set: Bacterial proliferation assay, K. pneumoniae. The data set is classed as cell-based. The procedure, abridged:
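Klebsiella pneumoniae ATCC 13883 was cultured in Brain Heart Infusion medium supplemented with 25 mg/L Ca^2+ and 12.5 mg/L Mg^2+. Cells were diluted to OD600 0.017, and 30 μL was added to 384-well plates holding 0.5 μL compound in 20 μL media. Plates were incubated stagnantly at 37° C., and OD600 was read at 6-8 h to determine EC50.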

The subject of data set [2] is Acinetobacter baumannii (ATCC 19606). Nature of the data set: Bacterial proliferation assay, A. baumannii. The data set is classed as cell-based. In a few lines: (§1)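 Cultures in BHI broth with 25 mg/L Ca2+ and 12.5 mg/L Mg2+ were diluted to OD600 0.017 and exposed to compounds in 384-well plates at 37 °C without shaking. OD600 was read at 6-8 h (S. aureus, E. cloacae, P. aeruginosa) or 24 h (A. baumannii). EC50 values were averaged over quadruplicates.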

Data set [3] deals with Methicillin resistant S. aureus (MRSA) (ATCC BAA-44). The experiment in a line: Bacterial proliferation assay, MRSA. The data set is classed as cell-based, Staphylococcus aureus. The note with it: Staphylococcus aureus, MRSA. The procedure, abridged:
as §1

[4] abbreviates: log of IC50 (μM scale), with standard deviation, read-out: log(IC50) Native MDH Reporter (converted).
The mark [5] stands for this setting: read-out: Biochemical Assay IC50 Native MDH Reporter.
Setting [6] is: ATCC13883, OD600 at 6-8 h, read-out: Bacterial Proliferation EC50 K. pneumoniae.
Where [7] appears, read: ATCC13883, log of EC50 (μM scale), with standard deviation, read-out: log(EC50) Bacterial Proliferation Assay K. pneumoniae (converted).
Where [8] appears, read: ATCC19606, OD600 at 24 h, read-out: Bacterial Proliferation EC50 A. baumannii.
The mark [9] stands for this setting: ATCC19606, log of EC50 (μM scale), with standard deviation, read-out: log(EC50) Bacterial Proliferation Assay A. baumannii (converted).
Setting [10] is: log of EC50 (μM scale), with standard deviation, read-out: log(EC50) Bacterial Proliferation Assay S. aureus Resistant (converted).

SMILES strings stand for the structures. Read-outs that look alike come from different tables or passages of the source.

Take `COc1ccc(Br)cc1C(=O)Nc1ccc(Sc2nc3ccccc3s2)c(Cl)c1` [Compound 31, N-(4-(Benzo[d]thiazol-2-ylthio)-3-chlorophenyl)-5-bromo-2-methoxybenzamide]: the IC50 on native MDH (setting [4]) is more than 63.1 µM; on native MDH (setting [5]), more than 63 µM. Moreover, the CC50 at 48 h in “in vitro” was more than 100 µM. For the same compound, the EC50 in data set [1] (setting [6]), in data set [1] (setting [7]), in data set [2] (setting [8]), in data set [2] (setting [9]) and in data set [3] (setting [10]) was more than 100 µM each time.
As for `O=C(Nc1ccccc1)c1cccc(Br)c1` [Compound 27, 3-Bromo-N-phenylbenzamide], the IC50 is more than 63.1 µM on native MDH (setting [4]) and more than 63 µM on native MDH (setting [5]). The CC50 at 48 h in the data set “in vitro” is more than 100 µM. For the same compound, the EC50 in data set [1] (setting [6]), in data set [1] (setting [7]), in data set [2] (setting [8]), in data set [2] (setting [9]) and in data set [3] (setting [10]) was more than 100 µM each time.
As for `COc1ccccc1C(=O)Nc1cccc(Cl)c1` [Compound 40, N-(3-Chlorophenyl)-2-methoxybenzamide], the figures for the IC50 on native MDH (setting [4]) and on native MDH (setting [5]) were more than 63.1 µM and more than 63 µM, respectively. This compound yielded a CC50 at 48 h in the data set “in vitro” of more than 100 µM. The EC50 in data set [1] (setting [6]), in data set [1] (setting [7]), in data set [2] (setting [8]), in data set [2] (setting [9]) and in data set [3] (setting [10]) was more than 100 µM in each case.
As to `COc1ccc(Br)cc1C(=O)Nc1ccc(Sc2nc3ccccc3s2)cc1` [Compound 35, N-(4-(Benzo[d]thiazol-2-ylthio)phenyl)-5-bromo-2-methoxybenzamide], the IC50 at native MDH (setting [4]) was more than 63.1 µM; at native MDH (setting [5]), more than 63 µM. In the data set “in vitro”, this compound gave a CC50 at 48 h of more than 100 µM. Besides, the EC50 in data set [1] (setting [6]), in data set [1] (setting [7]), in data set [2] (setting [8]), in data set [2] (setting [9]) and in data set [3] (setting [10]) was more than 100 µM each time.
As for `COc1c(Br)cc(Br)cc1C(=O)Nc1ccc(Sc2nc3ccccc3s2)cc1` [Compound 33, N-(4-(Benzo[d]thiazol-2-ylthio)phenyl)-3,5-dibromo-2-methoxybenzamide], the IC50 is more than 63.1 µM on native MDH (setting [4]) and more than 63 µM on native MDH (setting [5]). For the same compound, the CC50 at 48 h in “in vitro” was more than 100 µM. In addition, the EC50 in data set [1] (setting [6]), in data set [1] (setting [7]), in data set [2] (setting [8]), in data set [2] (setting [9]) and in data set [3] (setting [10]) was more than 100 µM each time.
In the case of `COc1c(Br)cc(Br)cc1C(=O)Nc1ccc(Sc2nc3ccccc3s2)c(Cl)c1` [Compound 29, N-(4-(Benzo[d]thiazol-2-ylthio)-3-chlorophenyl)-3,5-dibromo-2-methoxybenzamide], the IC50 on native MDH (setting [4]) is more than 63.1 µM; on native MDH (setting [5]) it was more than 63 µM. The compound further displayed a CC50 at 48 h in “in vitro” of more than 100 µM. The EC50 in data set [1] (setting [6]), in data set [1] (setting [7]), in data set [2] (setting [8]), in data set [2] (setting [9]) and in data set [3] (setting [10]) was more than 100 µM in each case.
Take `CC1(C)S[C@@H]2[C@H](NC(=O)[C@H](N)c3ccccc3)C(=O)N2[C@H]1C(=O)O` [Ampicillin, ampicillin, reference compound]: the IC50 was more than 63.1 µM at native MDH (setting [4]) and more than 63 µM at native MDH (setting [5]). In “in vitro” (HEK 293 kidney cells), the CC50 at 48 h is more than 100 µM. Besides, the EC50 is more than 100 µM in data set [1] (setting [6]); more than 100 µM in data set [1] (setting [7]); more than 100 µM in data set [2] (setting [8]); more than 100 µM in data set [2] (setting [9]); more than 100 µM in data set [3] (OD600 at 6-8 h, read-out: Bacterial Proliferation EC50 S. aureus Resistant); more than 100 µM in data set [3] (setting [10]).
Regarding `COc1ccccc1C(=O)Nc1ccc(Sc2nc3ccccc3s2)c(Cl)c1` [Compound 32, N-(4-(Benzo[d]thiazol-2-ylthio)-3-chlorophenyl)-2-methoxybenzamide], the IC50 was more than 63.1 µM at native MDH (setting [4]) and more than 63 µM at native MDH (setting [5]). In addition, the CC50 at 48 h in the data set “in vitro” was more than 100 µM. Also, the EC50 in data set [1] (setting [6]), in data set [1] (setting [7]), in data set [2] (setting [8]), in data set [2] (setting [9]) and in data set [3] (setting [10]) was more than 100 µM throughout.
